Measured values: patent publication US20210163308A1, “COMPOSITIONS AND METHODS FOR THE MODULATION OF CYTOKINES” (GALLEON LABS LLC, priority 2018, published 2021)
Where a SMILES comes first, the peptide text is derived from it.

Columns and labels:
[1] = system: endothelial cells, T cells, coronary artery smooth muscle cells and fibroblasts; test: Study CSM002-01-b: anti-proliferative activity; type: cell-based, human; settings: PBS
[2] = system: endothelial cells, T cells, B cells, coronary artery smooth muscle cells and fibroblasts; test: Study CSM001-01-b: anti-proliferative activity; type: cell-based, human; settings: DMSO
Method: (§1) All test compounds were dissolved in dimethyl sulfoxide (DMSO).

[3] = system: primary human cells; test: Study CSM001-01-b: overt cytotoxicity (SRB, Alamar Blue); type: cell-based; settings: DMSO, >50% reduction in cellular protein levels (SRB) and/or PBMC viability
Method: An annotated assay profile was prepared for each test agent. Biomarker readouts are annotated when two or more consecutive concentrations are changed in the same direction, relative to the vehicle control, outside of the significance envelope and with an effect size of at least 10% (more than 0.05 log ratio units). Biomarker activities are annotated as “modulated” when they are increased in some system(s) and decreased in other system(s). If applicable, a benchmark overlay was performed at the top non-cytotoxic concentration. Results of a similarity search (all test agents) and clustering (at least three test agents) were determined. […] A table of overtly cytotoxic test agents was also prepared which are test agents with a >50% reduction in cellular protein levels (sulforhodamine B, SRB) in one or more systems; and/or >50% reduction in PBMC viability. […]
Alamar Blue assays were used to determine the viability of non-adherent PBMCs in the assay systems, and are based on the conversion of resazurin to resorufin via the reduction reactions of metabolically active cells. […] Upon entering cells, resazurin is reduced to resorufin which produces very bright red fluorescence. Viable cells continuously convert resazurin to resorufin, thereby generating a quantitative measure of viability and cytotoxicity. The amount of fluorescence produced is proportional to the number of living cells. […]

[4] = system: primary human cells (3C, 4H, LPS, SAg, BT, BF4T, BE3C, CASM3C, HDF3CGF, KF3CT, MyoF, /Mphg systems); test: Study CSM001-01-b: biomarker readouts in primary human cell systems, compounds in DMSO; type: cell-based
Method: (§2) Profiling was performed using the following processes:
as §1

[5] = system: primary human cells (3C, 4H, LPS, SAg, BT, BF4T, BE3C, CASM3C, HDF3CGF, KF3CT, MyoF, /Mphg systems); test: Study CSM002-01-b: biomarker readouts in primary human cell systems, compounds in PBS; type: cell-based; settings: for TF / TM: hemostasis-related activity
Method: Profiling was performed using the following processes: […]

[6] = system: fibroblasts; test: Study CSM003-01-b: anti-proliferative activity; type: cell-based, human; settings: PBS, anhydrous
Method: All test compounds were dissolved in phosphate buffered saline (PBS).
(§4) The following primary human cells were used as test systems: HDFSAg (dermal fibroblasts), HDF3CGF (dermal fibroblasts); KF3CT (keratinocytes+dermal fibroblasts) and HDFLPS (dermal fibroblasts+peripheral blood mononuclear cells).

[7] = system: primary human cells (HDFSAg, HDF3CGF, KF3CT, HDFLPS systems); test: Study CSM003-01-b: biomarker readouts in primary human cell systems, compounds in PBS; settings: for pattern of immune responses in HDFSAg: HDFSAg system
Method: The following compounds were screened in the assay system at the noted concentrations to test for anti-proliferative, inflammation-related, immunomodulatory, tissue remodeling and hemostasis-related activities at the noted concentrations (Table 4). All test compounds were dissolved in phosphate buffered saline (PBS).
as §4

[8] = system: primary human cells; test: Aspartame first activity profile (FIG. 46): biomarker readouts; type: cell-based
Method: as §2
FIG. 46 provides a first activity profile of aspartame. The key activities of aspartame include inflammation-related activities: decreased MCP-1 and SAA; increased IL-8, IL-1α and VCAM-1; immunomodulatory activities: decreased sIL-2; increased sIgG and sIL-6; modulated CD69; and tissue remodeling activities: decreased MMP-9; increased Collagen-I and tPA; modulated PAI-I.

[9] = system: primary human cells; test: Aspartame second activity profile (FIG. 47): biomarker readouts; type: cell-based
Method: as §2
(§3) FIG. 47 provides a second activity profile of aspartame. The key activities of aspartame include anti-proliferative to B cells (grey arrow); inflammation-related activities: decreased sTNFα and IL1α; increased MCP-1 and VCAM-1; immunomodulatory activities: increased sIL-17A, sIL-17F, sIL-6, and CD40; and tissue remodeling activities: decreased MMP9; increased MMP3, αSMA, and Col-I.

[10] = system: B cells; test: Aspartame second activity profile (FIG. 47): anti-proliferative activity; type: cell-based, human
Method: as §2, §3

## CC(O)CC(=O)O (stereo not drawn) [beta hydroxybutyric acid]
[1]
  proliferation of T cells: anti-proliferative
  proliferation of coronary artery smooth muscle cells: anti-proliferative
  proliferation of endothelial cells: anti-proliferative
[2]
  proliferation of T cells: anti-proliferative
  proliferation of endothelial cells: anti-proliferative
[3]
  overt cytotoxicity: overtly toxic in multiple systems at the top concentration tested
[4]; immunomodulatory activity
  M-CSF: increased
  sIgG: decreased
[4]; inflammation-related activity
  ICAM-1: increased
  IL-1α: increased
  IL-8: decreased
  MIG: decreased
  VCAM-1: decreased
[4]; tissue remodeling activity
  Collagen-I: increased
  EGFR: increased
  MMP-9: modulated
  PAI-I: modulated
  tPA: increased
  uPA: increased
[5]
  TF: increased
  TM: increased
[5]; immunomodulatory activity
  CD40: increased
  CD69: increased
  M-CSF: increased
  sIL-6: increased
[5]; inflammation-related activity
  IL1α: decreased
  IL-8: decreased
  MCP-1: increased
  sTNFα: decreased
[5]; tissue remodeling activity
  Col-I: increased
  MMP-3: increased
  MMP-9: decreased
  αSMA: increased

## O=[N+]([O-])[O-].O=[N+]([O-])[O-].[Sr+2] [Strontium nitrate, Strontium Nitrate]
[1]
  proliferation of coronary artery smooth muscle cells: anti-proliferative
[2]
  proliferation of B cells: anti-proliferative
  proliferation of T cells: anti-proliferative
  proliferation of coronary artery smooth muscle cells: anti-proliferative
  proliferation of endothelial cells: anti-proliferative
  proliferation of fibroblasts: anti-proliferative
[6]
  proliferation of fibroblasts: anti-proliferative to fibroblasts at the top concentration only
[7]
  pattern of immune responses in HDFSAg: enhanced immune responses
[7]; immunomodulatory activity
  sIL-2: increased
  sIL-6: increased
  sIL-10: increased
[7]; inflammation-related activity
  MCP-1: decreased
[4]; hemostasis-related activity
  TF: increased
  TM: increased
[4]; immunomodulatory activity
  HLA-DR: decreased
  M-CSF: increased
  sIL-6: decreased
  sIL-17A: decreased
  sIL-17F: decreased
  sIgG: decreased
[4]; inflammation-related activity
  Eotaxin-3: decreased
  I-TAC: decreased
  IL-1α: decreased
  IL-8: decreased
  IP-10: decreased
  MCP-1: decreased
  SAA: decreased
  VCAM-1: decreased
  sPGE2: increased
  sTNFα: decreased
[4]; tissue remodeling activity
  Keratin 8/18: increased
  MMP-1: decreased
  MMP-3: increased
  MMP-9: decreased
  PAI-I: decreased
  TIMP-2: increased
  uPAR: decreased
[5]
  TF: decreased
  TM: increased
[5]; immunomodulatory activity
  CD40: increased
  M-CSF: decreased
[5]; inflammation-related activity
  ICAM-1: increased
  IL1α: modulated
  IP-10: decreased
  MIP-1: decreased
  VCAM-1: increased
  sTNFα: decreased
[5]; tissue remodeling activity
  Ker 8/18: increased
  MMP-1: increased
  MMP-9: increased
  tPA: increased
  uPAR: increased

## COC(=O)[C@H](Cc1ccccc1)NC(=O)[C@@H](N)CC(=O)O [aspartame] (H-Asp-Phe-OMe)
[8]; immunomodulatory activity
  CD69: modulated
  sIL-2: decreased
  sIL-6: increased
  sIgG: increased
[8]; inflammation-related activity
  IL-1α: increased
  IL-8: increased
  MCP-1: decreased
  SAA: decreased
  VCAM-1: increased
[8]; tissue remodeling activity
  Collagen-I: increased
  MMP-9: decreased
  PAI-I: modulated
  tPA: increased
[9]; immunomodulatory activity
  CD40: increased
  sIL-6: increased
  sIL-17A: increased
  sIL-17F: increased
[9]; inflammation-related activity
  IL1α: decreased
  MCP-1: increased
  VCAM-1: increased
  sTNFα: decreased
[9]; tissue remodeling activity
  Col-I: increased
  MMP3: increased
  MMP9: decreased
  αSMA: increased
[10]
  proliferation of B cells: anti-proliferative

## CC(=O)N[C@@H](CS)C(=O)O [N-acetyl-L-cysteine]
[3]
  overt cytotoxicity: overtly toxic in multiple systems at the top two concentrations tested
[4]; immunomodulatory activity
  CD40: decreased
  sIL-17A: decreased
[4]; inflammation-related activity
  Eotaxin-3: decreased
  IL-6: increased
  IL-8: modulated
  IP-10: decreased
  MIG: decreased
  sTNFα: decreased
[4]; tissue remodeling activity
  Collagen-I: increased
  EGFR: decreased
  Keratin 8/18: increased
  MMP-1: increased
  MMP-3: increased
  MMP-9: modulated
  PAI-I: increased
  TIMP-I: increased
  tPA: increased
  uPAR: increased
[5]; inflammation-related activity
  Esel: decreased
  IL1α: decreased
  IL-6: decreased
  IL-8: decreased
  IP-10: decreased
  ITAC: decreased
  sTNFα: decreased
[5]; tissue remodeling activity
  Col-I: increased
  EGFR: decreased
  MMP-3: increased
  tPA: modulated
  αSMA: increased

## O=C(O)c1cc(O)c(O)c(O)c1 [gallic acid, 3,4,5-trihydroxy benzoic acid]
[1]
  proliferation of T cells: anti-proliferative
  proliferation of coronary artery smooth muscle cells: anti-proliferative
  proliferation of endothelial cells: anti-proliferative
  proliferation of fibroblasts: anti-proliferative
[2]
  proliferation of T cells: antiproliferative
  proliferation of coronary artery smooth muscle cells: antiproliferative
  proliferation of endothelial cells: antiproliferative
  proliferation of fibroblasts: antiproliferative
[4]; immunomodulatory activity
  M-CSF: decreased
  sIL-2: decreased
  sIL-10: increased
  sIL-17A: decreased
[4]; inflammation-related activity
  Eotaxin-3: decreased
  I-TAC: decreased
  ICAM-1: decreased
  IL-1α: decreased
  IL-8: increased
  IP-10: decreased
  MIG: decreased
  MIP-1: increased
  SAA: decreased
  VCAM-1: modulated
  sTNFα: decreased
[4]; tissue remodeling activity
  Collagen-III: increased
  Collagen-IV: increased
  EGFR: increased
  Keratin 8/18: decreased
  MMP-1: increased
  MMP-3: increased
  MMP-9: decreased
  PAI-I: modulated
  bFGF: decreased
  tPA: increased
  α-SMA: increased
[5]; immunomodulatory activity
  M-CSF: modulated
[5]; inflammation-related activity
  IL-8: increased
  IP-10: increased
  ITAC: decreased
  VCAM-1: decreased
  sPGE2: increased
  sTNFα: decreased
[5]; tissue remodeling activity
  MMP-9: increased
  tPA: increased
  uPA: increased
  αSMA: increased

## O.O.O.O.O.O.[Cl-].[Cl-].[Sr+2] [Strontium chloride hexahydrate]
[7]
  pattern of immune responses in HDFSAg: enhanced immune responses
[7]; immunomodulatory activity
  sIL-6: increased
  sIL-10: increased
  sIL-17A: increased
  sIL-17F: increased
